Data as given in patent publication US20260176260A1, “DUAL RAF AND TUBULIN INHIBITORS AND METHODS OF USE THEREOF” (Deciphera Pharmaceuticals, LLC, priority 2023, published 2026).
Like-named read-outs stand apart in the source and are kept apart here.

How the values were obtained:
HPAF-II cells = experiment: HPAF-II cell proliferation assay (resazurin); type: cell-based; conditions: Homo sapiens, read-out: HPAF-II
Method: (§1) HPAF-II cells (catalog #CRL-1997) are obtained from the American Type Culture Collect (ATCC, Manassas, VA). Briefly, cells are grown in Minimum Essential Media supplemented with 10% characterized fetal bovine serum (Invitrogen, Carlsbad, CA) and 1% Penicillin/Streptomycin/L-Glutamine at 37° C., 5% CO2, and 95% humidity. Cells are expanded until reaching 70-95% confluency at which point they are sub-cultured or harvested for assay use. A serial dilution of test compound is dispensed into a 384-well black clear bottom plate in triplicate. 750 cells are added per well in 50 μL complete growth medium in the 384-well plate. Plates are incubated for 115 to 120 h at 37° C., 5% CO2, and 95% humidity. At the end of the incubation, 40 μL of a […] solution of resazurin (Sigma, St. Louis, MO) in PBS is added to each well of the plate and plates are incubated for an additional 18 to 24 h at 37° C., 5% CO2, and 95% humidity. Plates are read on a Synergy2 or equivalent reader (Biotek, Winooski, VT) using an excitation of 540 nm and an emission of 600 nm. Data is analyzed using Prism software (Graphpad, San Diego, CA) to calculate IC50 values.

MiaPaca-2 cells = experiment: MiaPaca-2 cell proliferation assay (resazurin); type: cell-based; conditions: Homo sapiens, MIA PaCa-2, read-out: MiaPaca-2
Method: MiaPaca-2 cells (catalog #CRL-1420) are obtained from the American Type Culture Collect (ATTC, Manassas, VA). Briefly, cells were grown in DMVEM supplemented with […] fetal bovine serum (Invitrogen, Carlsbad, CA), 2.5% New Zealand sourced horse serum and 1% Penicillin/Streptomycin/L-Glutamine at 37° C., […], and […]. Cells are expanded until reaching […] at which point they are sub-cultured or harvested for assay use. For assays completed in 96-well plates, a serial dilution of test compound is dispensed into a 96-well black clear bottom plate in triplicate. Three thousand cells are added per well in 200 μL complete growth medium in the 96-well plate. Plates are incubated for 67 to 72 h at 37° C., 5% CO2, and 95% humidity. At the end of the incubation, 40 μL of a […] solution of resazurin (Sigma, St. Louis, MO) in PBS is added to each well of the plate and plates are incubated for an additional 5 to 6 h at 37° C., 5% CO2, and 95% humidity. For 384-well assays, a threefold, 8-point serial dilution of compound was spotted column wise into a 384 well black, clear bottom, tissue culture treated plate using the Beckman Coulter Echo 650. Likewise, a threefold, 8-point serial dilution of cobimetinib was spotted row wise into the 384 well black, clear bottom plate containing compound. DMSO concentration was constant across all wells at 0.4%. Seven hundred fifty cells are added per well in 50 μL complete growth medium in each 384-well plate. Plates are incubated for 67 to 72 h at 37° C., 5% CO2, and 95% humidity. At the end of the incubation, 10 μL of a 440 μM solution of resazurin (Sigma, St. Louis, MO) in PBS is added to each well of the plate and plates are incubated for an additional 4 to 6 h at 37° C., 5% CO2, and 95% humidity. Plates are read on a Synergy2 or equivalent reader (Biotek, Winooski VT) using an excitation of 540 nm and an emission of 600 nm. Data is analyzed using Prism software (Graphpad, San Diego, CA) to calculate IC50 values.

HCT-116 cells = experiment: HCT-116 cell proliferation assay (resazurin); type: cell-based; conditions: Homo sapiens, read-out: HCT-116
Method: HCT-116 cells (catalog #CCL-247) are obtained from the American Type Culture Collect (ATCC, Manassas, VA). Briefly, cells are grown in McCoy's 5A supplemented with 10% characterized fetal bovine serum (Invitrogen, Carlsbad, CA) and 1% Penicillin/Streptomycin/L-Glutamine at 37° C., 5% CO2, and 95% humidity. Cells are expanded until reaching 70-95% confluency at which point they are sub-cultured or harvested for assay use. A serial dilution of test compound is dispensed into a 384-well black clear bottom plate in triplicate. 375 cells are added per well in 50 μL complete growth medium in the 384-well plate. Plates are incubated for 67 to 72 h at 37° C., 5% CO2, and 95% humidity. At the end of the incubation, 40 μL of a […] solution of resazurin (Sigma, St. Louis, MO) in PBS is added to each well of the plate and plates are incubated for an additional 4 to 5 h at 37° C., 5% CO2, and 95% humidity. Plates are read on a Synergy2 or equivalent reader (Biotek, Winooski, VT) using an excitation of 540 nm and an emission of 600 nm. Data is analyzed using Prism software (Graphpad, San Diego, CA) to calculate IC50 values.

Porcine Brain Tubulin = biological target: T1, Porcine Brain Tubulin (Sus scrofa, UniProt P02550+P02554); experiment: Biochemical tubulin polymerization assay; conditions: Table 5; read-out: Tubulin Biochem
T1 construct: Porcine Brain Tubulin (T240); purchased Cytoskeleton, Inc T240; BK011P; host or cells: porcine brain
T1 sequence (P02550 whole entry): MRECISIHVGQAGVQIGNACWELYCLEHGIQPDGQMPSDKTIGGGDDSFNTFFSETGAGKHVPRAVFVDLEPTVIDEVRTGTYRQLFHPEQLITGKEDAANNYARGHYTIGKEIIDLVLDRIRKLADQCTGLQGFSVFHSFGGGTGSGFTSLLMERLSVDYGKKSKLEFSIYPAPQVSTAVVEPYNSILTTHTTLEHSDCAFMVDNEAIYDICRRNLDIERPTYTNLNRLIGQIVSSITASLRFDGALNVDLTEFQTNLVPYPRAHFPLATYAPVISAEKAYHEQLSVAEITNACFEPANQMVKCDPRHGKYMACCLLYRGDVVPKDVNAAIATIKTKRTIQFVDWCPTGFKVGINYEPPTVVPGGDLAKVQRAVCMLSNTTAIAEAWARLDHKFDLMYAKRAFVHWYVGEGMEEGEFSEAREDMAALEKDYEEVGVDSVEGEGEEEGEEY
T1 sequence (P02554 whole entry): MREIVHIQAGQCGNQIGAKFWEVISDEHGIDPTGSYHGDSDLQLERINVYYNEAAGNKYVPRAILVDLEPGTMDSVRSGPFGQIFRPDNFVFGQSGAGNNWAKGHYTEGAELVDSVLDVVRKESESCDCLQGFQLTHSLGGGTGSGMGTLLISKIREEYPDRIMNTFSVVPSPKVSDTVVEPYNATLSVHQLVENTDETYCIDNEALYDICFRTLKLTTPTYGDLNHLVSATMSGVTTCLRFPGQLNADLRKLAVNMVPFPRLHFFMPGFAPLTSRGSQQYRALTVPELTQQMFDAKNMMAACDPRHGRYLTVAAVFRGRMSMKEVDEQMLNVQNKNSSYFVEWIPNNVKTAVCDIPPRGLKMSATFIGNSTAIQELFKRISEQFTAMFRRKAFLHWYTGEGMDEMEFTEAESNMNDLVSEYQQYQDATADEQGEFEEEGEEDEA

B-Raf kinase = biological target: T2, B-Raf kinase (Homo sapiens, UniProt P15056); experiment: Biochemical assay for B-Raf (coupled pyruvate kinase/lactate dehydrogenase); conditions: read-out: BRAF
T2 construct: purchased Sigma
T2 sequence (P15056 416-766): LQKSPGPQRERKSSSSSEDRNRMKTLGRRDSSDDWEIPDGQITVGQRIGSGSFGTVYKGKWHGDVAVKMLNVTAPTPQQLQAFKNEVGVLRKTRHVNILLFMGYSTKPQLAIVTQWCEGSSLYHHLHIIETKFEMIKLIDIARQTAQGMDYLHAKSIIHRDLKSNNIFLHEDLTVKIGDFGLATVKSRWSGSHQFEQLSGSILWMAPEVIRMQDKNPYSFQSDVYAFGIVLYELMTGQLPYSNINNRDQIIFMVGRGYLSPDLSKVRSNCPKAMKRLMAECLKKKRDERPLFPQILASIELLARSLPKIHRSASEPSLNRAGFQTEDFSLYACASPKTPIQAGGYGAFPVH

Pa16c cells = experiment: Pa16c cell proliferation assay (resazurin); type: cell-based; conditions: Table 2, inhibition of cell proliferation
Method: as §1, with “Pa16c” for “HPAF-II”, “cells” for “cells (catalog #CRL-1997)”, “Dr. Channing Der, University of North Carolina at Chapel Hill.” for “the American Type Culture Collect (ATCC, Manassas, VA).”, “Dulbecco's Modified Eagle Medium” for “Minimum Essential Media”, “67” for “115”, “72” for “120”

C-Raf kinase = biological target: T3, C-Raf kinase (Homo sapiens, UniProt P04049, Y340D/Y341D); experiment: Biochemical assay for C-Raf (coupled pyruvate kinase/lactate dehydrogenase); conditions: read-out: CRAF
T3 construct: C-Raf residues 306-end; Y340D, Y341D with N-; purchased Sigma
T3 sequence (P04049 307-648 Y340D/Y341D): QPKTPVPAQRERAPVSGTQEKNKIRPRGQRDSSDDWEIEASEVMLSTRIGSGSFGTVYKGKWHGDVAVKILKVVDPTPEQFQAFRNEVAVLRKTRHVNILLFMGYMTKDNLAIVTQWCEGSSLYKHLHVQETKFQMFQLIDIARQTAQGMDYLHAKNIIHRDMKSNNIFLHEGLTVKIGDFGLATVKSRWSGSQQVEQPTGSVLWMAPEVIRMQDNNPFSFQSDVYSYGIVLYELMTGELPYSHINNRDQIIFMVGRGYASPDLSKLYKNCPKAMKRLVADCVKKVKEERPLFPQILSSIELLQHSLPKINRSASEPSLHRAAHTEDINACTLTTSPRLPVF

[1] = tested on: tubulin polymerization in HCT-116 cells; experiment: Cellular tubulin polymerization assay (pellet/supernatant a-tubulin, HCT-116 cells); type: cell-based; conditions: Table 5, HCT-116 cells; read-out: Tubulin Cellular
Method: HCT-116 cells (catalog #CCL-247) are obtained from the American Type Culture Collect (ATCC, Manassas, VA). Briefly, cells are grown in McCoy's 5A supplemented with 10% characterized fetal bovine serum (Invitrogen, Carlsbad, CA) and 1% Penicillin/Streptomycin/L-Glutamine at 37° C., 5% CO2, and 95% humidity. Cells are expanded until reaching 70-95% confluency at which point they are sub-cultured or harvested for assay use. 450000 cells are added per well in 1500 μL complete growth medium in a tissue culture treated, 12-well plate. Plates are incubated for 18 to 24 h at 37° C., 5% CO2, and 95% humidity. At the end of the incubation, 2000 μL of base culture media is added to each well, followed by a serial dilution of compound. Plates are incubated for an additional 1 h at 37° C., 5% CO2, and 95% humidity. Lysates are generated by the addition of 100 μL Lysis and Microtubule Stabilization Buffer 1 (LMS01, Cytoskeleton Inc, Denver, CO) supplemented with GTP (BST06, Cytoskeleton Inc), ATP (BSA04, Cytoskeleton Inc), and Protease Inhibitor Cocktail Stock (PIC02, Cytoskeleton Inc). Cells are scraped off wells using a rubber cell scraper and collected in a clean 96-well plate. Lysates are centrifuged at 1000×g, 37° C. for 10 min and supernatant fraction is placed into an additional 96-well plate. The remaining pellet fraction is reconstituted in 100 μL LMS01 buffer and sonicated for 10 min. Pellet and Supernatant fractions are probed for a-tubulin via western blot analysis on the Jess System or equivalent (Bio-techne, Minneapolis, MN). Data is analyzed using Prism software (Graphpad, San Diego, CA) to calculate IC50 values.

[2] = Table 2, inhibition of cell proliferation
[3] = Table 1, inhibition of biochemical activity

SMILES | IC50 (MiaPaca-2 cells; Table 5) [nM] | IC50 (HCT-116 cells; Table 5) [nM] | IC50 (Porcine Brain Tubulin) [nM] | IC50 (B-Raf kinase; [3]) [nM] | IC50 (MiaPaca-2 cells; [2]) [nM] | IC50 (HCT-116 cells; [2]) [nM] | IC50 (C-Raf kinase; [3]) [nM] | IC50 (B-Raf kinase; Table 5) [nM] | IC50 (C-Raf kinase; Table 5) [nM] | IC50 (HPAF-II cells; Table 5) [nM] | IC50 (HPAF-II cells; [2]) [nM] | IC50 (Pa16c cells) [nM] | IC50 [1] [nM]
CNC(=O)c1cc(-c2cncc(-c3cc(NC(=O)c4cc(C#N)cnn4)ccc3C)c2)ccn1 [Example 46] |  |  |  | 100 to 500 | 1000 to 10000 | 500 to 1000 | 100 to 500 |  |  |  | 1000 to 10000 | 1000 to 10000 | 
Cc1ccc(NC(=O)N2CC[C@@H](CC(F)(F)F)C2)cc1-c1cc(N[C@H](C)CO)nc(N2CCOCC2)c1 [Exarafenib, reference compound] | 1000 to 10000 | 500 to 1000 |  |  |  |  |  |  |  | 1000 to 10000 |  |  | 1000 to 10000
Cc1ccc(NC(=O)c2ccnc(C(F)(F)F)c2)cc1-c1cc(OCCO)nc(N2CCOCC2)c1 [Naporafenib, reference compound] | 1000 to 10000 | 1000 to 10000 | > 100000 |  |  |  |  | < 100 | < 100 | 1000 to 10000 |  |  | 

Now from value to compound, other results behind:

IC50 (MiaPaca-2 cells; Table 5) [nM] | IC50 (HCT-116 cells; Table 5) [nM] | IC50 (Porcine Brain Tubulin) [nM] | IC50 (B-Raf kinase; [3]) [nM] | IC50 (MiaPaca-2 cells; [2]) [nM] | IC50 (HCT-116 cells; [2]) [nM] | IC50 (C-Raf kinase; [3]) [nM] | IC50 (B-Raf kinase; Table 5) [nM] | IC50 (C-Raf kinase; Table 5) [nM] | SMILES | IC50 (HPAF-II cells; Table 5) [nM] | IC50 (HPAF-II cells; [2]) [nM] | IC50 (Pa16c cells) [nM] | IC50 [1] [nM]
1000 to 10000 | 1000 to 10000 | > 100000 |  |  |  |  |  |  | CC(C)(C)c1nc(-c2cccc(NS(=O)(=O)c3c(F)cccc3F)c2F)c(-c2ccnc(N)n2)s1 [Dabrafenib, reference compound] | 1000 to 10000 |  |  | 
 |  |  | < 100 | < 100 | < 100 | < 100 |  |  | CNC(=O)c1cc(-c2cc(-c3cc(NC(=O)c4cc(C(F)(F)F)cnn4)ccc3C)cc(NC)n2)ccn1 [Example 47] |  | < 100 | < 100 | 
 |  |  | < 100 | 500 to 1000 | 100 to 500 | < 100 |  |  | CNC(=O)c1cc(-c2cc(-c3cc(NC(=O)c4cc(C(F)(F)F)cnn4)ccc3C)cc(N)n2)ccn1 [Example 48] |  | 100 to 500 | 1000 to 10000 | 
 |  |  | < 100 | 500 to 1000 | 500 to 1000 | < 100 |  |  | CNC(=O)c1cc(-c2cc(-c3cc(NC(=O)c4cc(C#N)cnn4)ccc3C)cc(OCCO)n2)ccn1 [Example 49] |  | 500 to 1000 | < 100 | 
